Paper PMC9369069, “Development of Sesamol Carbamate-L-Phenylalanine Prodrug Targeting L-Type Amino Acid Transporter1 (LAT1) as a Potential Antiproliferative Agent against Melanoma” (International Journal of Molecular Sciences, 2022)
Like-named read-outs stand apart in the source and are kept apart here.

Biological target: T1, L-type amino acid transporter 1 (LAT1) (Homo sapiens, UniProt Q01650)
T1 construct: gene SLC7A5
Assay: cell-based

T1 sequence (Q01650 whole entry): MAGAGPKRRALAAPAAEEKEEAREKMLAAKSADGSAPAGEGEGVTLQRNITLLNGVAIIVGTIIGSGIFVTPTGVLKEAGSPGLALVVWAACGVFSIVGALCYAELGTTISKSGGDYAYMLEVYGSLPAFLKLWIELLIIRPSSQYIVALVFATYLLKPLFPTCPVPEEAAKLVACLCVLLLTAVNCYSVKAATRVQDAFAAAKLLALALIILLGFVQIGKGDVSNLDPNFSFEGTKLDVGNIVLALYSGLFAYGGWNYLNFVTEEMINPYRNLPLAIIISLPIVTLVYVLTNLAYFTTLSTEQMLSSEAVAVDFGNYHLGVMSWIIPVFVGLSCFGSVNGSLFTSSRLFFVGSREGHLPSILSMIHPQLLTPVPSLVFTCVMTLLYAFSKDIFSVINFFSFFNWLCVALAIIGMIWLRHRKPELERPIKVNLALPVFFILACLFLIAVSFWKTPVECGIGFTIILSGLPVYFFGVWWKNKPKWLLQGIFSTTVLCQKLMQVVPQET
T1 sequence (P08195 103-630 partner): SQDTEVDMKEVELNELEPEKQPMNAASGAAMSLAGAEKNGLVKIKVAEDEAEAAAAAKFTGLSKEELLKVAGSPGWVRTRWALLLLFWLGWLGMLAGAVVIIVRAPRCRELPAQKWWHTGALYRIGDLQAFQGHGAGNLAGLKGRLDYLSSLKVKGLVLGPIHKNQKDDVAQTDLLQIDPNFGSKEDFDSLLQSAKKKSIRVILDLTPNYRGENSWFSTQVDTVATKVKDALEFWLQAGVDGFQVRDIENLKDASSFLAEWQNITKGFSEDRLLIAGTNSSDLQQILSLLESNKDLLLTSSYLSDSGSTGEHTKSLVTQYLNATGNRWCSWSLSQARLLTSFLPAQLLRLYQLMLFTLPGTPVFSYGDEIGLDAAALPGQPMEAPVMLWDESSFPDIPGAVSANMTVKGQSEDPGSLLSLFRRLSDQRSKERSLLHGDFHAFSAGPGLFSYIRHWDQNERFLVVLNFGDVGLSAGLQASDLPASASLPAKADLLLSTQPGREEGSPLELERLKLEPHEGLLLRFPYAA

| Structure (SMILES) | IC50 | IC50 (read-out: IC50) |
| --- | --- | --- |
| N[C@@H](Cc1ccc(NC(=O)Oc2ccc3c(c2)OCO3)cc1)C(=O)O [4-sesamol carbamate-L-phenylalanine prodrug] | 631 ± 38 µM |  |
| N[C@@H](Cc1ccccc1)C(=O)O [L-Phenylalanine] |  | 96.8 ± 11.5 µM |
| Oc1ccc2c(c1)OCO2 [Sesamol] | 4760 ± 219 µM |  |
